US7589193B2, “C-aryl glucoside SGLT2 inhibitors and method” (Bristol-Myers Squibb Company, priority 2004, dated 2009)
Where two headings read alike, the source gives them in different places.

Legend:
STZ diabetic rats = experiment: Determination of blood glucose effect in streptozotocin-treated diabetic rats (Study A); type: in vivo, rat (male Sprague Dawley); settings: oral 0.1 mg/kg
Procedure: I. Protocol for Study A: Determination of Blood Glucose Effect in Streptozotocin-Treated Diabetic Rats
The following analysis was utilized to reasonably predict the impact on plasma glucose for the compounds analyzed in the matrix above.
Male Sprague Dawley rats (Charles River) weighing 250-275 g were made diabetic by a single intraperitoneal injection of streptozotocin (Sigma) at 65 mg/kg, prepared in fresh cold (4° C.) 0.01 M citrate buffer. Four days later, animals were bled in the fed state. Whole blood was collected via the tail tip and analyzed for glucose by the glucose oxidation method with a Glucometer Elite (Bayer). Mean blood glucose levels ranged from 450-550 mg/dl.
On the day of the experiment, the compound was dissolved in the vehicle comprised of 5% m-Pyrol, 20% PEG 400 and 20 mM Sodium Diphosphate. Rats were weighed, randomized into 4 groups with 6 rats in each group, and dosed orally with the vehicle or 0.1 mg/kg of the compound. The total volume for oral gavage was 1 ml/kg body weight. After dosing, the food was removed from the cages and the rats had access to water ad lib during the experiment. Blood samples were obtained from the tail tip at 0, 30, 60, 120, 180, 240 and 300 minutes following drug administration. Blood glucose was analyzed by the glucose oxidation method with a Glucometer Elite (Bayer).
A. Statistical Data Analysis
The calculation of mean blood glucose values and percent changes vs. vehicle at each time point were performed using Microsoft Excel. Statistical analyses (T tests, or ANOVA followed by Fisher's test) comparing drug-treated groups vs. vehicle controls) were performed using Microsoft Excel or the statistical program StatView. A p value of less that 0.05 was considered to be statistically significant.

[1] = Stability in presence of commonly used solid excipients under accelerated aging conditions (Study B); type: physicochemical; settings: for Stability in a prototypical formulation: drug-excipient blends, accelerated aging conditions, 1 and 3 weeks, HPLC analysis
Text: II. Protocol for Study B: Stability Determination of Oxidatively Labile Therapeutic Agent in Presence of Commonly Used Solid Excipients, Under Accelerated Aging Conditions
The following procedure was utilized to access the chemical stability of the compound 3 in the presence of commonly used excipients and typical antioxidants.
The drug substance was triturated in a mortar pestle with the respective antioxidant, and then mixed in the dry state with other excipients listed in the following table. Sodium metabisulfite and butylated hydroxyl anisole (BHA) were used as antioxidants in this study. BHA was used at two levels, 0.01% w/w and 0.5% w/w, and sodium metabisulfite was used at 0.01% w/w. For samples stored at 40° C./[…] and HIL/uv, oxygen gas was purged into the vials and they were tightly capped. The drug-excipient blends (A-D) were placed under the different accelerated aging conditions listed within the second table for 1 and 3 weeks prior to HPLC analysis.

[2] = test system: Chinese hamster ovary (CHO) cells; experiment: Cytogenetics study in Chinese hamster ovary cells, in vitro clastogenicity / chromosome aberration (Study C); settings: 3 hr with/without S9, 20 hr without S9
Text: (§1) The following protocol was utilized to predict the in vitro clastogenicity activity of compounds of therapeutic interest.
(§2) Clastogenicity was predicted by determining the potential of compounds of interest to induce structural chromosome damage in Chinese hamster ovary (CHO) cells.
(§3) The vehicle control is dimethyl sulfoxide (DMSO). The positive controls were Mitomycin C for the 3-hr and 20-hr exposure without S9 activation and cyclophosphamide for the 3-hr exposure with S9 rat-liver enzymes. Both Mitomycin C and cyclophosphamide were diluted with sterile water.
(§4) Two stock solutions in DMSO of the compound of interest were prepared—one being a high concentration, the other low. Aliquots of the vehicle control, low and high dosing solutions were collected following treatment of the CHO cells and subsequently analyzed to determine the concentration of the compound of interest. […] Once the upper limit of solubility of the compound of interest was determined in DMSO, that DMSO solution is added to culture medium to determine effects on pH or osmmolality. […]
(§5) The DMSO stock solution of the compound of interest was 100× concentration of the highest test-article concentration to be used in the full assay. […] The cytotoxicity dose response observed in the range finding study determined the serial dilution factor for the five lower doses. […]

[3] = test system: Chinese hamster ovary (CHO) cells
Text: as §1, §2, §3, §4, §5

CCc1ccc(Cc2cc([C@@H]3O[C@H](CO)[C@@H](O)[C@H](O)[C@H]3O)ccc2Cl)cc1 [Compound 1]
% Decrease of plasma glucose in STZ diabetic rats at 5 hr after an oral dose of 0.1 mg/kg vs. vehicle treated controls (STZ diabetic rats): 62%
Stability in a prototypical formulation [1]: Yes
Chemical stability in the presence of excipients commonly used in solid dosage forms [1]: chemically stable

CSc1ccc(Cc2cc([C@@H]3O[C@H](CO)[C@@H](O)[C@H](O)[C@H]3O)ccc2C)cc1 [Compound 3]
% Decrease of plasma glucose in STZ diabetic rats at 5 hr after an oral dose of 0.1 mg/kg vs. vehicle treated controls (STZ diabetic rats): 59%
Stability in a prototypical formulation [1]: No

CCOc1ccc(Cc2cc([C@@H]3O[C@H](CO)[C@@H](O)[C@H](O)[C@H]3O)ccc2Cl)cc1 [Compound 4]
% Decrease of plasma glucose in STZ diabetic rats at 5 hr after an oral dose of 0.1 mg/kg vs. vehicle treated controls (STZ diabetic rats): 60%
Stability in a prototypical formulation [1]: Yes
Chemical stability in the presence of excipients commonly used in solid dosage forms [1]: chemically stable
In vitro clastogenic activity [2]: Yes

CCc1ccc(Cc2cccc([C@@H]3O[C@H](CO)[C@@H](O)[C@H](O)[C@H]3O)c2)cc1 [Compound 5]
% Decrease of plasma glucose in STZ diabetic rats at 5 hr after an oral dose of 0.1 mg/kg vs. vehicle treated controls (STZ diabetic rats): 34%
Stability in a prototypical formulation [1]: Yes
Chemical stability in the presence of excipients commonly used in solid dosage forms [1]: chemically stable
In vitro clastogenic activity [3]: Yes
